Assay results reported in ChEMBL document CHEMBL1201862, “PubChem BioAssay data set” (2004).
Calls of active or inactive are those of the source.

How the values were obtained:
[1] = target: T1, Nucleotide-binding oligomerization domain-containing protein 1 (Homo sapiens, UniProt Q9Y239); assay: NOD1 signaling inhibitors, SAR follow-up, revised (AID 2333); type: functional
T1 sequence (Q9Y239 whole entry): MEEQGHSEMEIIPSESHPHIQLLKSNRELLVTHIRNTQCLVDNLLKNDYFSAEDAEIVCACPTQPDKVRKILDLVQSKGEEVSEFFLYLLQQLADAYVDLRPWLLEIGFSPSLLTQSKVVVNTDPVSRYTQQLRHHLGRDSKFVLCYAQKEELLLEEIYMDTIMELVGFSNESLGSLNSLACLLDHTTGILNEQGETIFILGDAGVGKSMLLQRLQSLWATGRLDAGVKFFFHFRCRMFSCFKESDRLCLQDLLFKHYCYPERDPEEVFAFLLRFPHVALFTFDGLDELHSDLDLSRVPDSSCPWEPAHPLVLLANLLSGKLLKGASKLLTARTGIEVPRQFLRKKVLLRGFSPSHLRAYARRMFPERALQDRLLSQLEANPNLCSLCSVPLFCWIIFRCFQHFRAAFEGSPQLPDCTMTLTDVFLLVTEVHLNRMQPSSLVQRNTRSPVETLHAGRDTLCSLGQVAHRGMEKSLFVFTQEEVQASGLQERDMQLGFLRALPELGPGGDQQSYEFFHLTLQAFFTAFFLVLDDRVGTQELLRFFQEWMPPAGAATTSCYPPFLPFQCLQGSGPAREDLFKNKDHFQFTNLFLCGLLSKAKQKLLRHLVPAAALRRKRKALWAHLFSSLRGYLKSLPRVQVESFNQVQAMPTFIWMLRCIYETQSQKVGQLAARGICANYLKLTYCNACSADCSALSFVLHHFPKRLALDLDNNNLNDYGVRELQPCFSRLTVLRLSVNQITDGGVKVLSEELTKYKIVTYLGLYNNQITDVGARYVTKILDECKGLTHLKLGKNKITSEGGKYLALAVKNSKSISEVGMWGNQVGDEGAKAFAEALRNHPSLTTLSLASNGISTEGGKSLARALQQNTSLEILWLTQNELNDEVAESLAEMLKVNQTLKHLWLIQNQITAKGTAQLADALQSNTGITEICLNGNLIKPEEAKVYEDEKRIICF

HEK293 [2] = assay: cells; settings: Homo sapiens
HEK293 [3] = assay: NOD2 signaling inhibitors in MDP-stimulated cells, cell-based, uHTS, luminescence (AID 2001); type: functional; settings: Homo sapiens
HEK293 [4] = assay: cells; type: functional, cell-based; settings: Homo sapiens
Tumor necrosis factor = Tumor necrosis factor (Homo sapiens, UniProt P01375); assay: TNFa-triggered NF-kB activation inhibitors, SAR follow-up, cell-based, revised (AID 2337); type: functional
Chain of Tumor necrosis factor (P01375 whole entry): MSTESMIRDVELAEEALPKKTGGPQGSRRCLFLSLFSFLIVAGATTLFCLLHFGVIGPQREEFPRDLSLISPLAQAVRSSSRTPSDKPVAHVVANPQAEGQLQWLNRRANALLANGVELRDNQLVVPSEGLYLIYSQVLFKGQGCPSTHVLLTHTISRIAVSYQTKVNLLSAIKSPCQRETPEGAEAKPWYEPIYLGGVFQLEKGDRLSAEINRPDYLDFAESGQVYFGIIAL

HEK293 [5] = assay: cells; type: functional, cell-based; settings: Homo sapiens; remark: listed apart in the source
[6] = target: T2, Nucleotide-binding oligomerization domain-containing protein 2 (Homo sapiens, UniProt Q9HC29); assay: PubChem AID 2334; type: functional
T2 sequence (Q9HC29 whole entry, the tested form may be a part): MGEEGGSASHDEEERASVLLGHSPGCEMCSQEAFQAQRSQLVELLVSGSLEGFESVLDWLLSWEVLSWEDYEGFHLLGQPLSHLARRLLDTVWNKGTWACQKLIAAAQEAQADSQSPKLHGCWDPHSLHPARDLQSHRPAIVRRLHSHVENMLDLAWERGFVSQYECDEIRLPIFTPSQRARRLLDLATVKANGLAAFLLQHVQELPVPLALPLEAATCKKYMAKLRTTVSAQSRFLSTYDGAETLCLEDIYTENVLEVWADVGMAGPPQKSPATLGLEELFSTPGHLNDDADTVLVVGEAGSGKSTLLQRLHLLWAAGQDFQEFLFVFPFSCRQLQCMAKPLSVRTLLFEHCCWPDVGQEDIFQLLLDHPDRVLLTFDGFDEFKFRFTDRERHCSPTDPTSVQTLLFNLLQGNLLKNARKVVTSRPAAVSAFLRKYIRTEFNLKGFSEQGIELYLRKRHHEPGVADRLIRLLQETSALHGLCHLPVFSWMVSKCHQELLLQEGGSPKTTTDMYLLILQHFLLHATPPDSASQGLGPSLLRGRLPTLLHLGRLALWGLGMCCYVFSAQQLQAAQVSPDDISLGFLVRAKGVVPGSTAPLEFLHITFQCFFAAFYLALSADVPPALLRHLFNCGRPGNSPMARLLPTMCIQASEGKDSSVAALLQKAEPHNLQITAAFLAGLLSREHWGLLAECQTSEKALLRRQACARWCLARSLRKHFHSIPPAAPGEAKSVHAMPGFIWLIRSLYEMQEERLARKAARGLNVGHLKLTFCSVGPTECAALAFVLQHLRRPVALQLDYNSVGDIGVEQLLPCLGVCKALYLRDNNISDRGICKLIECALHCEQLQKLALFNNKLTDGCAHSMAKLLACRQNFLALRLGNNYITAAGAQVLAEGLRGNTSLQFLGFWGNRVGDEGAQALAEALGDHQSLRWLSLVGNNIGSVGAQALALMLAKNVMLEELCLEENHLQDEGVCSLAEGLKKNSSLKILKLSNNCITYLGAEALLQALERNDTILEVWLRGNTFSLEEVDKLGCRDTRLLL

HEK293 [7] = assay: NOD1 signaling inhibitors, primary screen, cell-based, luminescence, uHTS (AID 1578); type: functional; settings: Homo sapiens
[8] = target: T2, Nucleotide-binding oligomerization domain-containing protein 2; assay: NOD2 signaling inhibitors, cell-based, luminescence, uHTS, HEK293 (AID 1566); type: functional
HEK293 [9] = assay: cells; type: functional, cell-based; settings: Homo sapiens; remark: listed apart in the source
Cytochrome P450 2D6 = Cytochrome P450 2D6 (Homo sapiens, UniProt P10635);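 further: CYP2D6 member of a cytochrome P450 panel assay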
Chain of Cytochrome P450 2D6 (P10635 whole entry): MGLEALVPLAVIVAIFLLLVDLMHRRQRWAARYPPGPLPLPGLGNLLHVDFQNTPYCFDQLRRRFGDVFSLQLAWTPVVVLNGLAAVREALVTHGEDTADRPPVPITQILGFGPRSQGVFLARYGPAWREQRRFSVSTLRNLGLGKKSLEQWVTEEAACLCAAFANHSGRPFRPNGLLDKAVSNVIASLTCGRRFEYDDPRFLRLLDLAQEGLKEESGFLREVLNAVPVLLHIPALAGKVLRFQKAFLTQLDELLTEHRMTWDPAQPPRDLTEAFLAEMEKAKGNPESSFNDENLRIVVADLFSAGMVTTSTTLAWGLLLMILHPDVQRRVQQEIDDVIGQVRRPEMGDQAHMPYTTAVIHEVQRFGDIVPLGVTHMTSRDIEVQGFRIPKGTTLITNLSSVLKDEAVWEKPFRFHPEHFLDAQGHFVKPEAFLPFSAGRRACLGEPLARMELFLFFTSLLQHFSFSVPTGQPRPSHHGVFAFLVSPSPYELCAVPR

Cytochrome P450 2C9 = Cytochrome P450 2C9 (Homo sapiens, UniProt P11712)
Chain of Cytochrome P450 2C9 (P11712 whole entry): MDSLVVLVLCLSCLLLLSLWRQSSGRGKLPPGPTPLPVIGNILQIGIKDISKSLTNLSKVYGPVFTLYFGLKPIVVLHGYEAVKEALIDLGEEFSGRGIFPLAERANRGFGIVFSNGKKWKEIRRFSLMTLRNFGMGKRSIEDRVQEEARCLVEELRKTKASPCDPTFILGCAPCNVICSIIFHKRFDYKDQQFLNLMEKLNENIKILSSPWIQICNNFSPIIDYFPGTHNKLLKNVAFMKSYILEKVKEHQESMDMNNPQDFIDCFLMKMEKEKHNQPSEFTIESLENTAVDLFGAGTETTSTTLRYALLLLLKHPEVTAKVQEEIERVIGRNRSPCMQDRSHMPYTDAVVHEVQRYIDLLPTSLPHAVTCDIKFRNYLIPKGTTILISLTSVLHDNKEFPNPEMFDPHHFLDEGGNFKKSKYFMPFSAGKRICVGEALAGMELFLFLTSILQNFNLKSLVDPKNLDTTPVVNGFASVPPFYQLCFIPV

CAAX prenyl protease 2 = CAAX prenyl protease 2 (Saccharomyces cerevisiae S288c, UniProt Q03530); type: biochemical
Chain of CAAX prenyl protease 2 (Q03530 whole entry): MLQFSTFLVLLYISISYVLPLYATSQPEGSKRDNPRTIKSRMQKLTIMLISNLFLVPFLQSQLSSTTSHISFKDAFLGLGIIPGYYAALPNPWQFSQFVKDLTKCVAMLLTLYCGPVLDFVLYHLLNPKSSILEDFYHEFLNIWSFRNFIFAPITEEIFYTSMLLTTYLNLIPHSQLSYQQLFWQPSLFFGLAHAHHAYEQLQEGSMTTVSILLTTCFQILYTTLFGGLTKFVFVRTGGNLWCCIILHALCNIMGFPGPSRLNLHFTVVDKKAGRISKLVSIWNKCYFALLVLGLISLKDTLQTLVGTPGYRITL

CAAX prenyl protease 1 = CAAX prenyl protease 1 (Saccharomyces cerevisiae S288c, UniProt P47154); assay: Ste24 protease inhibitors, dose response, biochemical, S. cerevisiae, plate reader, cherry-pick (AID 488815)
Chain of CAAX prenyl protease 1 (P47154 whole entry): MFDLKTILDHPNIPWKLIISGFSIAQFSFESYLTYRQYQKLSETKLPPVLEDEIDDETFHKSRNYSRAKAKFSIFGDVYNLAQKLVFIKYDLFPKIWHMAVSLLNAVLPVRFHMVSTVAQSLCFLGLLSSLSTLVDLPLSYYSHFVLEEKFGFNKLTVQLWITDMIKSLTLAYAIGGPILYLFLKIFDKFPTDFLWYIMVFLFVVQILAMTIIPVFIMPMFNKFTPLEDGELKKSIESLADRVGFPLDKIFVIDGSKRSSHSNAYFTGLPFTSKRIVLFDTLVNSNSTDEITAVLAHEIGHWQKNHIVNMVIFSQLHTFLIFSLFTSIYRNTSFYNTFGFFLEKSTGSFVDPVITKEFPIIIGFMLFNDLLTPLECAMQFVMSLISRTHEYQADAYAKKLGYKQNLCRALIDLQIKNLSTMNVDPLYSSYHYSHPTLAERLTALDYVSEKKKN

Q: With COc1ccc(NC(C)=O)cc1S(=O)(=O)Nc1ccc(OCc2ccccc2)cc1 as the compound, how does the IC50 [1] read?
A: 12.7 µM (active)

Q: What about the IC50 (HEK293 [2]) of the same compound?
A: > 20 µM (inactive)

Q: What about the IC50 (HEK293 [3]) of the same compound?
A: > 20 µM (inactive)

Q: What about the IC50 (HEK293 [4]) of the same compound?
A: > 20 µM (inactive)

Q: What about the IC50 (Tumor necrosis factor) of the same compound?
A: 18 µM (active)

Q: What about the IC50 (HEK293 [5]) of the same compound?
A: > 20 µM (inactive)

Q: What about the IC50 [6] of the same compound?
A: 16.6 µM (active)

Q: What about the EC50 (HEK293 [7]) of the same compound?
A: 13.7 µM (active)

Q: And the EC50 [8]?
A: 12.3 µM (active)

Q: And the IC50 (HEK293 [9])?
A: > 20 µM (inactive)

Q: With O=[N+]([O-])c1ccc(N2CCOCC2)nc1 as the compound, how does the AC50 (Cytochrome P450 2D6) read?
A: inconclusive

Q: What about the AC50 (Cytochrome P450 2C9) of the same compound?
A: 7.94 µM (inconclusive)

Q: With Cc1ccc2c(C)c(C(=O)N(Cc3ccc(F)cc3)C3CCS(=O)(=O)C3)oc2c1 (centres undefined) as the compound, how does the AC50 (CAAX prenyl protease 2) read?
A: > 100 µM (inactive)

Q: And the AC50 (CAAX prenyl protease 1)?
A: 26.5 µM (active)
